The values below are quoted from earlier work in patent US20090169619A1, “CARBAMAZEPINE EXTENDED RELEASE DOSAGE FORM” (CorePharma LLC, priority 2005, published 2009).

With `NC(=O)N1c2ccccc2C=Cc2ccccc21` [Carbamazepine, 5H-Dibenz[b,f]azepine-5-carboxamide], the solubility in water result is “poor solubility”.
